Test results from ChEMBL document CHEMBL1139906, “Structure function analysis of benzalacetone synthase from Rheum palmatum” (Bioorg Med Chem Lett, 2007).

What was measured:
Rheum palmatum = assay: Activity of Rheum palmatum benzalacetone synthase S338V mutant
[1] = substrate: CC(C)(COP(=O)(O)OP(=O)(O)OC[C@H]1O[C@@H](n2cnc3c(N)ncnc32)[C@H](O)[C@@H]1OP(=O)(O)O)[C@@H](O)C(=O)NCCC(=O)NCCSC(=O)/C=C/c1ccc(O)cc1; assay: Activity of Rheum palmatum benzalacetone synthase

Molecule: CC(C)(COP(=O)(O)OP(=O)(O)OC[C@H]1O[C@@H](n2cnc3c(N)ncnc32)[C@H](O)[C@@H]1OP(=O)(O)O)[C@@H](O)C(=O)NCCC(=O)NCCSC(=O)/C=C/c1ccc(O)cc1
- Km (Rheum palmatum): 9.4 µM
- kcat (Rheum palmatum): 0.053 s⁻¹

B1: Polyketide synthase BAS (Rheum palmatum), Q94FV7 (protein)
chain: MATEEMKKLATVMAIGTANPPNCYYQADFPDFYFRVTNSDHLINLKQKFKRLCENSRIEKRYLHVTEEILKENPNIAAYEATSLNVRHKMQVKGVAELGKEAALKAIKEWGQPKSKITHLIVCCLAGVDMPGADYQLTKLLDLDPSVKRFMFYHLGCYAGGTVLRLAKDIAENNKGARVLIVCSEMTTTCFRGPSETHLDSMIGQAILGDGAAAVIVGADPDLTVERPIFELVSTAQTIVPESHGAIEGHLLESGLSFHLYKTVPTLISNNIKTCLSDAFTPLNISDWNSLFWIAHPGGPAILDQVTAKVGLEKEKLKVTRQVLKDYGNMSSATVFFIMDEMRKKSLENGQATTGEGLEWGVLFGFGPGITVETVVLRSVPVIS
- Km [1]: 10 µM
- kcat [1]: 0.0298 s⁻¹
